Results reported in US20250230193A1, “CYCLIC COMPOUND HAVING SELECTIVE KRAS INHIBITORY EFFECT ON HRAS AND NRAS” (CHUGAI SEIYAKU KABUSHIKI KAISHA, priority 2022, published 2025).
Where a SMILES comes first, the peptide text is derived from it. Bridges are numbered along the chain shown (N, C = ends). [ ]: non-standard residue; d: D form. The star is where a group is joined. hPhe(3-Cl-4-CF3) = N[C@@H](CCc1ccc(C(F)(F)F)c(Cl)c1)C(=O)O; NPrPhe(4-CF3) = CCCN[C@@H](Cc1ccc(C(F)(F)F)cc1)C(=O)O; NEtPhe(4-Me) = CCN[C@@H](Cc1ccc(C)cc1)C(=O)O; NMeGly(cPent) = CN[C@H](C(=O)O)C1CCCC1; NMeD = CN[C@@H](CC(=O)O)C(=O)O; NMeL = CN[C@@H](CC(C)C)C(=O)O; Morpholide = C1CN(*)CCO1; NMeA = CN[C@@H](C)C(=O)O; Ac5c = NC1(C(=O)O)CCCC1; Aze = O=C(O)[C@@H]1CCN1; Abu = CC[C@H](N)C(=O)O; NEtG = CCNCC(=O)O; Sar = CNCC(=O)O

Key:
[1] = biological target: GDP-bound NRAS wild-type protein (Homo sapiens, UniProt P01111); test: Binding to NRAS by surface plasmon resonance (SPR), Single Cycle Kinetics; settings: SPR
[2] = biological target: GDP-bound HRAS wild-type protein (Homo sapiens, UniProt P01112); test: Binding to HRAS by surface plasmon resonance (SPR), Single Cycle Kinetics; settings: SPR
[3] = KD ratio, GDP-bound NRAS wild-type vs GDP-bound KRAS wild-type
[4] = KD ratio, GDP-bound HRAS wild-type vs GDP-bound KRAS wild-type

Chain of GDP-bound HRAS wild-type protein (P01112 whole entry): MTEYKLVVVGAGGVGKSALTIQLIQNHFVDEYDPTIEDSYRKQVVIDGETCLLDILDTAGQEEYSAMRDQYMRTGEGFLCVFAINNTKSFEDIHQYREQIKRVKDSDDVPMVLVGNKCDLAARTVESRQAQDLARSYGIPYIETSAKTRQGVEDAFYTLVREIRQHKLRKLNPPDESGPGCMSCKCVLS
Chain of GDP-bound NRAS wild-type protein (P01111 whole entry): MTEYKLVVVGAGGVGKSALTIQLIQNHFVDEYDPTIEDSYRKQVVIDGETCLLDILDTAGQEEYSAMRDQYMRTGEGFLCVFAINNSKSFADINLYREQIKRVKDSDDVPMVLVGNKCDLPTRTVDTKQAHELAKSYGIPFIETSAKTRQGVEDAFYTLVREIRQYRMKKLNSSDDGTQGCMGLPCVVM

CC[C@H](C)[C@@H]1NC(=O)[C@H](CC(C)C)N(C)C(=O)C[C@@H](C(=O)N2CCOCC2)N(C)C(=O)[C@H](C2CCCC2)N(C)C(=O)C2(CCCC2)NC(=O)[C@@H]2CCCN2C(=O)[C@H](CCc2ccc(C(F)(F)F)c(Cl)c2)NC(=O)CN(CC)C(=O)[C@H](Cc2ccc(C)cc2)N(CC)C(=O)[C@@H]2CCN2C(=O)[C@H](C)N(C)C1=O [PP0006] ([NMeL]I[NMeA][Aze][NEtPhe(4-Me)][NEtG][hPhe(3-Cl-4-CF3)]P[Ac5c][NMeGly(cPent)][NMeD]-Morpholide; lactam N-11)
NRAS/KRAS (ratio of KD for GDP-bound NRAS wild-type to KD for KRAS) [1]: C (A compound having a KD ratio of 0.1 or more and less than 3 is denoted as C)
HRAS/KRAS (ratio of KD for GDP-bound HRAS wild-type to KD for KRAS) [2]: C (A compound having a KD ratio of 0.1 or more and less than 3 is denoted as C)

CCCN1C(=O)CN(C)C(=O)CN(C)C(=O)[C@H]([C@@H](C)CC)NC(=O)[C@@H]2CCCCCOc3ccc(cc3)C[C@H]1C(=O)N(C)CC(=O)N[C@@H](CCc1cc(F)c(C(F)(F)F)c(F)c1)C(=O)N1C[C@H](OCC)C[C@H]1C(=O)NC1(CCCC1)C(=O)N(C)[C@@H](C1CCCC1)C(=O)N(C)[C@H](C(=O)N(C)C)CC(=O)N2C [PP0895]
NRAS/KRAS (ratio of KD value with respect to NRAS to KD value with respect to KRAS) [1, 3]: C (A compound having a KD ratio of 0.1 or more and less than 3 is denoted as C)
HRAS/KRAS (ratio of KD value with respect to HRAS to KD value with respect to KRAS) [2, 4]: C (A compound having a KD ratio of 0.1 or more and less than 3 is denoted as C)

C#CC[C@H]1C(=O)N[C@@H]([C@@H](C)CC)C(=O)N(C)CC(=O)N(C)[C@H]2CCCCCN(C2=O)[C@@H](Cc2ccc(C(F)(F)F)cc2)C(=O)N(C)CC(=O)N[C@@H](CCc2cc(F)c(C(F)(F)F)c(F)c2)C(=O)N2C[C@H](OCC)C[C@H]2C(=O)NC2(CCC2)C(=O)N(C)[C@@H](C2CCCC2)C(=O)N(C)[C@H](C(=O)N(C)C)CC(=O)N1C [PP0666]
NRAS/KRAS (ratio of KD value with respect to GDP-bound NRAS wild-type protein to KD value with respect to KRAS) [1]: B (a compound having 3 or more and less than 10 is denoted as B)
HRAS/KRAS (ratio of KD value with respect to GDP-bound HRAS wild-type protein to KD value with respect to KRAS) [2]: B (a compound having 3 or more and less than 10 is denoted as B)

CCC[C@H]1C(=O)N[C@@H]([C@@H](C)CC)C(=O)N(C)CC(=O)N(C)[C@H]2C/C=C\CCN(C2=O)[C@@H](Cc2ccc(C(F)(F)F)cc2)C(=O)N(C)CC(=O)N[C@@H](CCc2ccc(Cl)c(Cl)c2)C(=O)N2CCCCC[C@H]2C(=O)NC2(CC(C)(C)C2)C(=O)N(C)[C@@H](C(CC)CC)C(=O)N(C)[C@H](C(=O)N(C)C)CC(=O)N1C [PP3031]
NRAS/KRAS (ratio of KD value with respect to GDP-bound NRAS wild-type protein to KD value with respect to KRAS) ([1]; GDP-bound wild-type proteins): AA (a compound having 20 or more is denoted as AA)
HRAS/KRAS (ratio of KD value with respect to GDP-bound HRAS wild-type protein to KD value with respect to KRAS) ([2]; GDP-bound wild-type proteins): A (a compound having 10 or more and less than 20 is denoted as A)

CCCN1C(=O)C[C@@H](C(=O)N(C)C)N(C)C(=O)[C@H](C2CCCC2)N(C)C(=O)C2(CCC2)NC(=O)[C@@H]2C[C@@H](OCC)CN2C(=O)[C@H](CCc2cc(F)c(C(F)(F)F)c(F)c2)NC(=O)CN(C)C(=O)[C@H](Cc2ccc(C(F)(F)F)cc2)N2CC/C=C\C[C@@H](C2=O)N(C)C(=O)CN(C)C(=O)[C@H]([C@@H](C)CC)NC(=O)[C@@H]1CC(C)C [PP1825]
NRAS/KRAS (ratio of KD value for NRAS to KD value for KRAS) [1, 3]: A (a compound having 10 or more and less than 20 is denoted as A)
HRAS/KRAS (ratio of KD value for HRAS to KD value for KRAS) [2, 4]: A (a compound having 10 or more and less than 20 is denoted as A)

CCCN1C(=O)[C@@H]2CCN2C(=O)[C@H](C)N(C)C(=O)[C@H](CC)NC(=O)[C@H](CC(C)C)N(C)C(=O)C[C@@H](C(=O)N2CCOCC2)N(C)C(=O)[C@H](C2CCCC2)N(C)C(=O)C2(CCCC2)NC(=O)[C@@H]2CCCN2C(=O)[C@H](CCc2ccc(C(F)(F)F)c(Cl)c2)NC(=O)CN(C)C(=O)[C@@H]1Cc1ccc(C(F)(F)F)cc1 [PP0269] ([NMeL][Abu][NMeA][Aze][NPrPhe(4-CF3)][Sar][hPhe(3-Cl-4-CF3)]P[Ac5c][NMeGly(cPent)][NMeD]-Morpholide; lactam N-11)
NRAS/KRAS (ratio of KD for GDP-bound NRAS wild-type to KD for KRAS) [1]: C (A compound having a KD ratio of 0.1 or more and less than 3 is denoted as C)
HRAS/KRAS (ratio of KD for GDP-bound HRAS wild-type to KD for KRAS) [2]: B (a compound having 3 or more and less than 10 is denoted as B)

CCO[C@@H]1C[C@H]2C(=O)NC3(CCC3)C(=O)N(C)[C@@H](C3CCCC3)C(=O)N(CCc3ccccc3)[C@H](C(=O)N3CCOCC3)CC(=O)N(C)[C@@H](CC(C)C)C(=O)N[C@@H]([C@@H](C)CC)C(=O)N(C)CC(=O)N(C)[C@H]3CCCCN(C3=O)[C@@H](Cc3ccc(C(F)(F)F)cc3)C(=O)N(C)CC(=O)N[C@@H](CCc3cc(F)c(C(F)(F)F)c(F)c3)C(=O)N2C1 [PP0652]
NRAS/KRAS (ratio of KD value with respect to GDP-bound NRAS wild-type protein to KD value with respect to KRAS) [1]: B (a compound having 3 or more and less than 10 is denoted as B)
HRAS/KRAS (ratio of KD value with respect to GDP-bound HRAS wild-type protein to KD value with respect to KRAS) [2]: B (a compound having 3 or more and less than 10 is denoted as B)
